Patent publication US5824647A, “Chemotactic wound healing peptides” (priority 1995, dated 1998)

What was measured:
[1] = system: infant foreskin fibroblasts; assay: Fibroblast chemotaxis in modified Boyden chambers (incl. checkerboard and deactivation studies); type: cell-based, human; conditions: for fibroblast chemotaxis / migration (in words): peptide in lower compartment of modified Boyden chamber; for Mean Fibroblasts per 20 OIF + SEM: Experiment 1, lower compartment: TGF-β1 50 pg/ml, peptide 368-374 1.4 × 10^-5 M, peptide 364-378 6.7 × 10^-7 M, fibronectin 20 μg/ml
Description: Target cells used in in vitro chemotaxis assays were infant foreskin fibroblasts obtained by establishing monolayer cultures from explants of tissue. Cells were maintained in Eagle's minimum essential medium (MEM) supplemented with non-essential amino acids, antibiotics, 50 ug/ml ascorbic acid, and 9% fetal calf serum (FCS). Cells were passaged by trypsinization every 3-5 days.
Infant foreskin fibroblasts were harvested from monolayer culture by gentle trypsinization, washed twice in serum-free Eagles's MEM and adjusted to a final concentration of 250,000 cells/ml. The cell suspension (0.4 ml) was added to the upper compartments of blind well modified Boyden chemotaxis chambers. The peptides of the invention being assayed for chemotactic activity were solubilized in glycylglycine (0.015M) buffered NaCl (0.14M), pH 7.2, hereinafter referred to as GGBS, and diluted 50% with serum-free MEM. Test substances were added to the lower compartment of the chemotaxis chambers. Gelatin-treated polycarbonate filters (8 micron pore size) were interposed between the lowest compartment and the upper cell compartment. Loaded chambers were incubated at 37° C. in a humidified atmosphere containing 5% CO2 for 150 minutes. After incubation, the chambers were disassembled, the filters removed, stained with hematoxylin, and mounted on glass cover slips. Fibroblast chemotaxis was quantitated by counting the number of fibroblasts in 20 oil immersion fields (OIF) that migrated and adhered to the lower surface of each filter. Samples were tested in quadruplicate and results are expressed as mean number of fibroblasts per 20 OIF±standard error of the mean (SEM). Chemotaxis neutralization studies were performed by adding TGF-β1 or fibronectin to the upper cell compartment and testing for effects on fibroblast migration to the TGF-β peptides.
Zigmond-Hirsch checkerboard analysis (Zigmond & Hirsch, J. Exptl. Med. 137:387, 1972) was performed to determine whether the 7-mer peptide 368-374 (Val Tyr Tyr Val Gly Arg Lys) induced chemotaxis of fibroblasts, monocytes and neutrophils.
Deactivation studies were utilized to determine whether the peptides of the invention containing the 7-mer peptide amino acid sequence induced chemotaxis via cellular receptors and mechanisms utilized by intact TGF-β.

[2] = system: human peripheral blood monocytes; assay: Monocyte chemotaxis in modified Boyden chambers; type: cell-based; conditions: peptide in lower compartment of modified Boyden chamber
From the text: (§1) Human peripheral blood neutrophils and monocytes, isolated from whole blood using standard techniques may also be used in the chemotaxis assays, in a manner similar to infant foreskin fibroblasts, to measure the chemotactic activity of the peptides towards inflammatory cells. Such cells may also be maintained in supplemented MEM as above, to which 5-10% FCS may be added. When using neutrophils and monocytes, instead of fibroblasts, the polycarbonate filters used in the modified Boyden chambers had pore sizes of 2 and 3 microns, respectively. As above, all assays were carried out in quadruplicate.
The following 7-mer peptides (peptides 368-374, corresponding to amino acids 368-374 of human TGF-β1): VYYVGRK (SEQ ID NO. 1), LYYIGKT (SEQ ID NO. 2), LYYVGRT (SEQ ID NO. 3), IYYVGRN (SEQ ID NO. 4) and IYYVGRT (SEQ ID NO. 5) were synthesized by the Merrifield technique, purified by HPLC, and tested at different concentrations in the same assay for their ability to stimulate chemotaxis of human peripheral blood monocytes in vitro modified Boyden chambers.

[3] = system: infant foreskin fibroblasts; assay: Collagen production by fibroblasts (modified Peterofsky-Diegelman assay); type: cell-based, human; conditions: [3H]proline incorporation into collagenase-sensitive protein
Description: The peptides of the invention were also found to stimulate collagen production by fibroblasts. Collagen production by fibroblasts in response to the peptides of the present invention was measured utilizing a modified Peterofsky-Diegelman assay. The assay is used to determine whether the peptides of the invention stimulate or inhibit collagen production by fibroblasts.
Low passage (4-12 subpassages) infant foreskin fibroblasts were plated out at a density of 10^5 cells/well in Falcon 3008 multiwell plates in complete maintenance medium containing 10% FCS. After cells reached confluency (72 hr), the medium was changed daily for 3 days, each time being replaced with serum-free maintenance medium containing fresh ascorbic acid. Samples (50 μl) were added to triplicate wells containing 450 μl serum-free MEM supplemented with fresh ascorbic acid and [^3 H]-proline (sp. act. 20 Ci/mmole), but no non-essential amino acids. After an additional 24 hr of culture, supernatants were reacted with protease-free bacterial collagenase to digest all collagen. Similar aliquots of unreacted supernatants and bacterial collagenase-treated supernatants were precipitated with cold 10% trichloroacetic acid (TCA) and were centrifuged for 5 minutes in a Beckman microfuge. Aliquots of the supernatants, after TCA precipitated proteins were pelleted, were placed in vials containing Hydrofluor and then were counted in a scintillation counter. CPM from TCA precipitated supernatants not reacted with bacterial collagenase were subtracted from each culture. The resulting CPM was a reflection of the collagen produced by that culture.
A modified Peterofsky-Diegelmann assay was used to screen peptide samples for their ability to stimulate or inhibit collagen production. Low passage (4-12 subpassages) infant foreskin fibroblast were plated out at a density of 10^5 cells/well of Falcon 3008 multiwell plates in complete maintenance medium containing 10% FCS. After cells reached confluency (72 hr) the medium was changed daily for 3 days, each time being replaced with serum-free maintenance medium containing fresh ascorbic acid. Samples ([…]) were added to triplicate wells containing […] serum free MEM supplemented with fresh ascorbic acid and [^3 H]-proline (sp. act. 20 Ci/mmole), but no non-essential amino acids. After an additional 24 hours of culture, supernatants were reacted with protease-free bacterial collagenase to digest all collagen. Similar aliquots of unreacted supernatants and bacterial collagenase-treated supernatants were precipitated with cold 10% trichloroacetic acid (TCA) and were centrifuged for 5 minutes in a Beckman microfuge. Aliquots of the supernatants, after TCA precipitated proteins were pelleted, were placed in vials containing Hydrofluor and then were counted in a scintillation counter. CPM from TCA precipitated supernatants not reacted with bacterial collagenase were subtracted from each culture. The resulting CPM was a reflection of the collagen produced by that culture.
Collagen production was measured following administration of the various 7-mer peptides 368-374 (SEQ ID NOs. 1-5) to fibroblasts. Peptides […] (SEQ ID NO. 1), LYYIGKT (SEQ ID NO. 2), LYYVGRT (SEQ ID NO. 3), IYYVGRN (SEQ ID NO. 4) and IYYVGRT (SEQ ID NO. 5) were synthesized by the Merrifield technique, purified by HPLC, and tested at different concentrations in the same assay for their ability to stimulate production of collagen in confluent cultures of infant foreskin fibroblasts. Collagen production was measured by incorporation of [^3 H]proline into collagenase-sensitive protein. All samples were tested in triplicate, and values represent the mean of triplicate determinations. Data are expressed as "% stimulation" of collagen production relative to control production in cultures with plain culture medium only added. […]

[4] = system: Human peripheral blood neutrophils; assay: Neutrophil chemotaxis in modified Boyden chambers; type: cell-based; conditions: peptide in lower compartment of modified Boyden chamber
From the text: as §1

[5] = Media added to upper compartment
[6] = TGF-β1 (50 pg/ml) added to upper compartment

| Substance | fibroblast chemotaxis / migration (in words) [1] | monocyte chemotaxis / migration (in words) [2] | collagen production by fibroblasts (in words) [3] | neutrophil chemotaxis / migration (in words) [4] | Mean Fibroblasts per 20 OIF + SEM [1, 5] [Fibroblasts per 20 OIF] | Mean Fibroblasts per 20 OIF + SEM [1, 6] [Fibroblasts per 20 OIF] |
| --- | --- | --- | --- | --- | --- | --- |
| IYYVGRN [7-mer peptide 368-374 homolog] | induced fibroblast chemotaxis at all of the concentration tested | induced monocyte chemotaxis at all of the concentrations tested | stimulated collagen production to some degree |  |  |  |
| 296-322: peptide derived from the N-terminal half of TGF-β1, residues 296-322 (VRQLYIDFRKDLGWKWIHEPKGYHANF; printed: Val Arg Gln Leu Tyr Ile Asp Phe Arg Lys Asp Leu Gly Trp Lys Trp Ile His Glu Pro Lys Gly Tyr His Ala Asn Phe) [Peptide 296-322] | none of the peptides derived from the N-terminal half of TGF-β1 (peptides 280-293, 296-322 and 328-354) were able to induce migration | none of the peptides derived from the N-terminal half of TGF-β1 (peptides 280-293, 296-322 and 328-354) were able to induce migration |  | none of the peptides derived from the N-terminal half of TGF-β1 (peptides 280-293, 296-322 and 328-354) were able to induce migration |  |  |
| 280-293: peptide derived from the N-terminal half of TGF-β1, residues 280-293 (ALDTNYCFSSTEKN; printed: Ala Leu Asp Thr Asn Tyr Cys Phe Ser Ser Thr Glu Lys Asn) [Peptide 280-293] | none of the peptides derived from the N-terminal half of TGF-β1 (peptides 280-293, 296-322 and 328-354) were able to induce migration | none of the peptides derived from the N-terminal half of TGF-β1 (peptides 280-293, 296-322 and 328-354) were able to induce migration |  | none of the peptides derived from the N-terminal half of TGF-β1 (peptides 280-293, 296-322 and 328-354) were able to induce migration |  |  |
| LYYVGRT [7-mer peptide 368-374 homolog] | induced fibroblast chemotaxis at all of the concentration tested | induced monocyte chemotaxis at all of the concentrations tested | stimulated collagen production to some degree |  |  |  |
| IYYVGRT [7-mer peptide 368-374 homolog] | induced fibroblast chemotaxis at all of the concentration tested | induced monocyte chemotaxis at all of the concentrations tested | stimulated collagen production to some degree |  |  |  |
| VSQDLEPLTILYYIGKTPKIEQLSNMIVKSC |  |  | stimulated collagen production |  |  |  |
| VPQALEPLPIVYYVGRKPKVEQLSN (VPQALEPLPIVYYVGRKPKVEQLSN) [Peptide 358-382] | induced migration of fibroblasts, monocytes and neutrophils in a dose dependent fashion | induced migration of fibroblasts, monocytes and neutrophils in a dose dependent fashion |  | induced migration of fibroblasts, monocytes and neutrophils in a dose dependent fashion |  |  |
| PIVYYVGRKPKVEQLSNMIVRS (PIVYYVGRKPKVEQLSNMIVRS) [Peptide 366-387] | induced migration of fibroblasts, monocytes and neutrophils in a dose dependent fashion | induced migration of fibroblasts, monocytes and neutrophils in a dose dependent fashion |  | induced migration of fibroblasts, monocytes and neutrophils in a dose dependent fashion |  |  |
| 328-354: peptide derived from the N-terminal half of TGF-β1, residues 328-354 (PYIWSLDTQYSKVLALYNQHNPGASAA; printed: Pro Tyr Ile Trp Ser Leu Asp Thr Gln Tyr Ser Lys Val Leu Ala Leu Tyr Asn Gln His Asn Pro Gly Ala Ser Ala Ala) [Peptide 328-354] | none of the peptides derived from the N-terminal half of TGF-β1 (peptides 280-293, 296-322 and 328-354) were able to induce migration | none of the peptides derived from the N-terminal half of TGF-β1 (peptides 280-293, 296-322 and 328-354) were able to induce migration |  | none of the peptides derived from the N-terminal half of TGF-β1 (peptides 280-293, 296-322 and 328-354) were able to induce migration |  |  |
| Fibronectin [reference compound] |  |  |  |  | 74 ± 2 | 71 ± 6 |
| TGF-β1: transforming growth factor β1, 50 pg/ml, chemoattractant control and deactivating agent [reference compound] |  |  |  |  | 7 ± 1 | 21 ± 2 |
